Measurements reported in patent US20070248591A1, “Preventive/Therapeutic Drug for Arteriosclerosis” (TAKEDA PHARMACEUTICAL COMPANY LIMITED, priority 2004, published 2007).

Columns and labels:
phosphorylation of IRS-1 = conditions: J. Biol. Chem., 277, 3085-3092, 2002; cited from earlier work
cells = conditions: J. Biochem. (Tokyo), 117, 766-773, 1995; cited from earlier work
THP-1 cells [1] = assay: Cholesterol efflux activity in foamed THP-1 macrophage-like cells ([3H]cholesterol, apolipoprotein AI); type: cell-based; conditions: for Cholesterol Efflux Activity (%): mean ± standard deviation
Description: THP-1 cells (purchased from ATCC; Int. J. Cancer., 26, 171-176, 1980) seeded in a 12-well plate (Falcon) at 8.0×10^5/well were treated for 3 days in RPMI-1640 medium (supplemented with 10% FBS, 25 mM HEPES and penicillin/streptomycin) containing phorbol-12-myristate-13-acetate (PMA) (final concentration: 100 nM) to allow for differentiation into macrophage-like cells. After washing with PBS, serum-free RPMI-1640 containing [^3H] cholesterol-labeled βVLDL (final cholesterol level: 150 μg/ml) was added thereto and incubated for 24 hours to prepare foamed cells. After washing twice with 0.2% BSA-containing PBS and then once with PBS, serum-free RPMI-1640 media supplemented with 0, and 20 µM D-PDMP, respectively, were added to treat for 24 and 48 hours. The supernatant was removed and RPMI-1640 medium (final concentration: 25 μg/ml) containing human apolipoprotein AI (Chemicon) was added thereto. Six hours after, the radioactivity released into the supernatant was measured in a liquid scintillation counter. The cells were further washed once with PBS and then lysed in 0.1% SDS-containing 0.1 N NaOH aqueous solution. A part of the lysate was taken up and the radioactivity was measured in a liquid scintillation counter.
The activity in efflux of cholesterol was determined by the following equation: Cholesterol efflux activity (%)=Radioactivity in supernatant/(Radioactivity in supernatant+Radioactivity in cell lysate)×100
Cells were prepared as described in (1) above. After the foamed cells prepared were washed, serum-free RPMI-1640 media containing 10 μM of glucosylceramide (Matreya, Inc.) and lactosylceramide (CALBIOCHEM), respectively, were added to treat for 24 hours. The supernatant was removed and RPMI-1640 medium (final concentration: 25 μg/ml) containing human apolipoprotein AI (Chemicon) was added thereto. Six hours after, the cholesterol efflux activity was measured by the same method as described in (1) above.

[2] = molecular target: T1, glucosylceramide synthase (Homo sapiens, UniProt Q16739); assay: Glucosylceramide synthase enzyme assay ([14C]UDP-glucose, C8 ceramide, lysate of transfected HEK293 cells); type: biochemical; design: made in house; host or cells: HEK293 cells, transiently transfected with pcDNA3.1(-) vector; M-PER lysate, soluble fraction after 27,000 x g; conditions: calculated using SAS Preclinical Package, ver. 5
T1 sequence (Q16739 1-394): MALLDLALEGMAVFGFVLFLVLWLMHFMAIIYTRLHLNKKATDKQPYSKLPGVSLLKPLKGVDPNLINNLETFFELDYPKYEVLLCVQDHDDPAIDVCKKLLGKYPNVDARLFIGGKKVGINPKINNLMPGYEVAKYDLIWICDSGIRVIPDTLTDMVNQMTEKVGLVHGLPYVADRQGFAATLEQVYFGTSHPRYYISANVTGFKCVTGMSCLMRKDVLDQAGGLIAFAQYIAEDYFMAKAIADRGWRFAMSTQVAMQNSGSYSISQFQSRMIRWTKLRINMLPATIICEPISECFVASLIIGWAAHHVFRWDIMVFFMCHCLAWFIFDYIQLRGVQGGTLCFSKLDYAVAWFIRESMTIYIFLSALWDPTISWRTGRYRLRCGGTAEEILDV
Description: Human glucosylceramide synthase gene was obtained from IMAGE clone 5274768 (Invitrogen). The reaction solution for the reaction was composed of 2 μl of plasmid DNA of IMAGE clone 5274768, 5 μl of 10×Pfu buffer (Stratagene), 1 μl of Hotstart Pfu (Stratagene), 1 μl each of 20 μM primers and 4 μl of 2.5 mM dNTP, to which 36 μl of distilled water was added to make the volume […]. After 2 minutes at 95° C., PCR was carried out by repeating 30 cycles, one set to include 95° C. for 30 seconds, 60° C. for 30 seconds and 72° C. for 2 minutes, followed by an extension at 72° C. for 10 minutes. […]
HEK293 cells (purchased from ATCC; J. Gen. Virol., 36, 59-74, 1977) were cultured in serum-containing DMEM medium and seeded in a 10 cm collagen coated plate (Iwaki Co.) at 1.2×10^6 on the previous day of gene transfer. […] Then, the chloroform layer was collected and the radioactivity was measured in a liquid scintillation counter. The activity value was determined by the following equation: Glucosylceramide synthase activity (%)=Radioactivity of the enzyme reaction product (cpm)/Specific radioactivity of [^14C]UDP-glucose (cpm/nmol)×1/amount of protein (mg)·reaction time (hr)
D-PDMP known to inhibit the glucosylceramide synthase activity was examined using the procedure described above. The IC50 was calculated using SAS Preclinical Package, ver. […]

[3] = tested on: lactosylceramide synthase; conditions: Glycoconjugate J., 13, 481-486, 1996; cited from earlier work
THP-1 cells [4] = assay: DiI-labeled acetyl LDL (denatured lipoprotein) uptake activity in THP-1 cells, FACS; type: cell-based
Description: THP-1 cells (purchased from ATCC) seeded in a 6-well Low Cell Binding Plate (Nunc) at 1.5×10^6/well were treated for 2 days in RPMI-1640 medium (supplemented with 0.4% FBS, 25 mM HEPES and penicillin/streptomycin) containing phorbol-12-myristate-13-acetate (PMA) (final concentration: 100 nM) or in RPMI-1640 medium (supplemented with 0.4% FBS, 25 mM HEPES and penicillin/streptomycin) containing PMA (final concentration: 100 nM) and D-PDMP (final concentration: 20 μM). Next, the treated cells were washed with serum-free RPMI-1640 medium and then suspended in serum-free RPMI-1640 medium supplemented with DiI (1,1′-dioctadecyl-3,3,3′,3′-tetramethylindocarbocyanine)-labeled acetyl LDL (Funakoshi, final concentration: 20 μg/ml), followed by incubation at 37° C. for 90 minutes while shaking. After washing with PBS, the cells were suspended in Cellfix buffer (BD) and uptake of DiI-labeled acetyl LDL was analyzed on a FACScan (BD Bioscience). The intermediate value obtained by the FACS analysis of the cells treated with phorbol-12-myristate-13-acetate alone was made 100%, and relative values were determined under each condition.

[5] = molecular target: T1, glucosylceramide synthase; conditions: Glycoconjugate J., 13, 481-486, 1996; cited from earlier work
[6] = tested on: human smooth muscle cells; conditions: added to the culture system; Biochem. Biophys. Res. Commun., 181, 554-61, 1991; cited from earlier work
human endothelial cells = conditions: added to the culture system; J. Biol. Chem., 273, 34349, 1998; cited from earlier work
[7] = exogenously added to the culture system, summary of TABLES 2 and 3

Compound	Effect on the action of TNF-α that inhibits phosphorylation of IRS-1 (phosphorylation of IRS-1)	Depletion of glucosylceramide and lactosylceramide in cells (in words) (cells)	Cholesterol Efflux Activity (%) (THP-1 cells [1]; D-PDMP 10 μM, 24 hrs. treatment, 0 μM control 1.7 ± 0.3)	Cholesterol Efflux Activity (%) (THP-1 cells [1]; D-PDMP 10 μM, 48 hrs. treatment, 0 μM control 2.1 ± 0.2)	Cholesterol Efflux Activity (%) (THP-1 cells [1]; D-PDMP 20 μM, 24 hrs. treatment, 0 μM control 1.7 ± 0.3)	Cholesterol Efflux Activity (%) (THP-1 cells [1]; D-PDMP 20 μM, 48 hrs. treatment, 0 μM control 2.1 ± 0.2)	Effect on cholesterol efflux activity (in words) (THP-1 cells [1]; summary of TABLE 1)	IC50 [2] [nM]	Inhibition of lactosylceramide synthase activity (in words) [3]	Acetyl LDL Uptake Activity (%) (THP-1 cells [4]; D-PDMP 20 μM with PMA 100 nM, 2 days, relative to PMA alone = 100%, mean ± standard deviation)	Effect on acetyl LDL uptake activity (in words) (THP-1 cells [4]; summary of TABLE 4)	Inhibition of glucosylceramide synthase activity (in words) [5]	Cholesterol Efflux Activity (%) (THP-1 cells [1]; Glucosylceramide 10 μM, 24 hours, 0 μM control 3.6 ± 0.1)	Effect on cholesterol efflux activity (in words) (THP-1 cells [1]; [7])	Proliferation activity [6]	Cholesterol Efflux Activity (%) (THP-1 cells [1]; Lactosylceramide 10 μM, 24 hours, 0 μM control 4.3 ± 0.2)	Expression of cell adhesion molecules such as ICAM-1 (human endothelial cells)
CCCCCCCCCC(=O)N[C@H](CN1CCOCC1)[C@H](O)c1ccccc1 [D-PDMP, D-threo-1-phenyl-2-decanoylamino-3-morpholino-1-propanol]	suppresses the action of TNF-α that inhibits phosphorylation of IRS-1	deplete glucosylceramide and lactosylceramide in cells in a concentration- and treating time-dependent manner	4.4 ± 0.4	6.0 ± 0.4	4.3 ± 0.8	6.8 ± 0.5	increased the cholesterol efflux activity concentration- and time-dependently	1500	known to inhibit the activities	28.9 ± 6.3^ %	suppressed the acetyl LDL uptake activity	known to inhibit the activities	–	–	–	–	–
Glucosylceramide	–	–	–	–	–	–	–	–	–	–	–	–	3.2 ± 0.2	suppressed	–	–	–
Lactosylceramide	–	–	–	–	–	–	–	–	–	–	–	–	–	suppressed	the proliferation activity is increased	2.3 ± 0.2	is increased in human endothelial cells
